{"source": "patent US4818687A", "about": "(priority 1985, dated 1989)", "origin": "cited, not measured here", "tested_on": "human liver cancer"}
{"smiles": "COc1cc2c(c3oc(=O)c4c(c13)CCC4=O)[C@@H]1C=CO[C@@H]1O2", "note": "[aflatoxin B1]", "values": [{"measurement": "association with human liver cancer", "value": "statistically associated with increased incidence of human liver cancer"}]}
